Laboratory results reported in US20230339952A1, “MACROCYCLIC HETEROCYCLES AND USES THEREOF” (Kumquat Biosciences Inc., priority 2022, published 2023).
Like-named read-outs stand apart in the source and are kept apart here.

How the values were obtained:
[1] = target: SOS1 (Homo sapiens (Human), UniProt Q07889); assay: Ras-SOS interaction assay (HTRF), K-Ras G13D utilized; format: binding; conditions: K-Ras G13D
[2] = test system: NCI-H1975 (ATCC CRL-5908) cell line comprising an EGFR T790M L858R double mutation; assay: EGFR-SOS cellular inhibition assay (CellTiter-Glo cell proliferation); format: cell-based; conditions: Homo sapiens
Description: A CellTiter-Glo (CTG) luminescent based assay (Promega) is used to assess growth of the cells, as a measurement of the ability of the compounds herein to inhibit EGFR signaling in the cells. […] The day after plating, cells are treated with a dilution series (e.g., a 9 point 3-fold dilution series) of the compounds herein (e.g., approximately 125 μL final volume per well).

[3] = 120 h, NCI-H1975 cell proliferation, approximately 5 days, read-out: H1975 IC50
[4] = read-out: IC50 value against SOS1

SOS1, sequence (Q07889 564-1049): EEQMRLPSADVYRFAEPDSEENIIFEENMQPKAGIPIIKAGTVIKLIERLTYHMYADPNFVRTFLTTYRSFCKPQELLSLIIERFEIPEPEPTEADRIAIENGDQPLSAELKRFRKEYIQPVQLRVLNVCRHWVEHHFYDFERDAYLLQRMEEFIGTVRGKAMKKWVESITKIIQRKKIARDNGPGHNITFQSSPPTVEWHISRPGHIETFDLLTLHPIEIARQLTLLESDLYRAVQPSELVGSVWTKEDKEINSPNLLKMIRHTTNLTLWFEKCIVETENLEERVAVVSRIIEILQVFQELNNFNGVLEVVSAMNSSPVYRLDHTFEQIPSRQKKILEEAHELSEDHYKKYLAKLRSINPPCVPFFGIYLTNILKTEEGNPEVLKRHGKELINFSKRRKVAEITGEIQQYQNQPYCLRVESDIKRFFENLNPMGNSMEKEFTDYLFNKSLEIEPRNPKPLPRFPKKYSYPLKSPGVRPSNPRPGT

| Compound | IC50 ([1]; read-out: SOS1 IC50) | IC50 [2, 3] | IC50 [1, 4] | IC50 ([2]; NCI-H1975, EGFR T790M L858R double mutation, read-out: IC50 in inhibiting growth of NCI-H1975 cell line) |
| --- | --- | --- | --- | --- |
| C[C@H]1Nc2ncnc3c2cc(C2(C#N)CC2)c(=O)n3CC(=O)NCCCCN2CCC(CC2)C(F)(F)c2cccc1c2F [Compound 158, 1-((4R)-3^2,2,2-trifluoro-4-methyl-6^7,8-dioxo-6^7,6^8-dihydro-5,9-diaza-6(4,8)-pyrido[2,3-d]pyrimidina-1(4,1)-piperidina-3(1,3)-benzenacyclotridecaphane-6^6-yl)cyclopropane-1-carbonitrile] | < 0.1 µM | < 1 µM |  |  |
| C[C@H]1Nc2ncnc3c2cc(C2(C#N)CC2)c(=O)n3CCCC/C=C\CN2CCC(CC2)C(F)(F)c2cccc1c2 [Compound 159, 1-((4R,Z)-2,2-difluoro-4-methyl-6^7-oxo-6^7,6^8-dihydro-5-aza-6(4,8)-pyrido[2,3-d]pyrimidina-1(4,1)-piperidina-3(1,3)-benzenacyclotridecaphan-11-en-6^6-yl)cyclopropane-1-carbonitrile] | < 0.1 µM | < 1 µM | < 0.05 µM | < 0.5 µM |
| C[C@H]1Nc2ncnc3c2cc(C2CCS(=O)(=O)CC2)c(=O)n3CCCCn2cc(nn2)CN2CCC(CC2)C(F)(F)c2cccc1c2 [Compound 160, (6R,Z)-8^6-(1,1-dioxidotetrahydro-2H-thiopyran-4-yl)-4,4-difluoro-6-methyl-8^7,8^8-dihydro-1^1H-7-aza-8 (4,8)-pyrido[2,3-d]pyrimidina-3(1,4)-piperidina-1(4,1)-triazola-5(1,3)-benzenacyclododecaphan-8^7-one] | < 0.1 µM | < 1 µM |  |  |
| C[C@H]1Nc2ncnc3c2cc(C2CCS(=O)(=O)CC2)c(=O)n3CCCCCCCN2CC(C2)CC(F)(F)c2cccc1c2 [Compound 161, (3R)-1^6-(1,1-dioxidotetrahydro-2H-thiopyran-4-yl)-5,5-difluoro-3-methyl-1^7,1^8-dihydro-2-aza-1(4,8)-pyrido[2,3-d]pyrimidina-7(3,1)-azetidina-4(1,3)-benzenacyclotetradecaphan-1^7-one] | < 0.1 µM | < 1 µM |  |  |
| CC(C)N1CCC(c2cc3c4ncnc3n(c2=O)CCCCCCCN2CCC(CC2)C(F)(F)c2cccc(c2F)[C@@H](C)N4)CC1 [Compound 162, (4R)-3^2,2,2-trifluoro-6^6-(1-isopropylpiperidin-4-yl)-4-methyl-6^7,6^8-dihydro-5-aza-6(4,8)-pyrido[2,3-d]pyrimidina-1(4,1)-piperidina-3(1,3)-benzenacyclotridecaphan-6^7-one] | < 0.1 µM | < 1 µM |  |  |
| CC(C)N1CCN(c2cc3c4ncnc3n(c2=O)CC(=O)N(C)CCCCN2CCC(CC2)C(F)(F)c2cccc(c2)[C@@H](C)N4)CC1 [Compound 163, (4R)-2,2-difluoro-6^6-(4-isopropylpiperazin-1-yl)-4,9-dimethyl-6^7,6^8-dihydro-5,9-diaza-6(4,8)-pyrido[2,3-d]pyrimidina-1(4,1)-piperidina-3(1,3)-benzenacyclotridecaphane-6^7,8-dione] | < 0.1 µM | < 1 µM |  |  |
| Cc1nc2c3cc(C4(C#N)CC4)c(=O)n(c3n1)CCC/C=C\CN1CCC(CC1)C(F)(F)c1cccc(c1)[C@@H](C)N2 [Compound 166, 1-((4R,Z)-2,2-difluoro-6^2,4-dimethyl-6^7-oxo-6^7,6^8-dihydro-5-aza-6(4,8)-pyrido[2,3-d]pyrimidina-1(4,1)-piperidina-3(1,3)-benzenacyclododecaphan-10-en-6^6-yl)cyclopropane-1-carbonitrile] | < 0.1 µM | < 1 µM | < 0.05 µM |  |
| Cc1nc2c3cc(C4(C#N)CC4)c(=O)n(c3n1)CCCC/C=C\CN1CCC(CC1)C(F)(F)c1cccc(c1F)[C@@H](C)N2 [Compound 168, 1-((4R,Z)-3^2,2,2-trifluoro-6^2,4-dimethyl-6^7-oxo-6^7,6^8-dihydro-5-aza-6(4,8)-pyrido[2,3-d]pyrimidina-1(4,1)-piperidina-3(1,3)-benzenacyclotridecaphan-11-en-6^6-yl)cyclopropane-1-carbonitrile] | < 0.1 µM | 1 to 10 µM | < 0.05 µM |  |
| Cc1nc2c3cc(C4(C#N)CC4)c(=O)n(c3n1)CCCCCN1CCC(CC1)C(F)(F)c1cccc(c1)[C@@H](C)N2 [Compound 169, 1-((4R)-2,2-difluoro-6^2,4-dimethyl-6^7-oxo-6^7,6^8-dihydro-5-aza-6(4,8)-pyrido[2,3-d]pyrimidina-1(4,1)-piperidina-3(1,3)-benzenacycloundecaphane-6^6-yl)cyclopropane-1-carbonitrile] | < 0.1 µM | < 1 µM |  |  |
| Cc1nc2c3cc(C4(C#N)CC4)c(=O)n(c3n1)CC/C=C\CN1CCC(CC1)C(F)(F)c1cccc(c1)[C@@H](C)N2 [Compound 172, 1-((4R,Z)-2,2-difluoro-6^2,4-dimethyl-6^7-oxo-6^7,6^8-dihydro-5-aza-6(4,8)-pyrido[2,3-d]pyrimidina-1(4,1)-piperidina-3(1,3)-benzenacycloundecaphan-9-en-6^6-yl)cyclopropane-1-carbonitrile] | 0.1 to 5 µM | < 1 µM |  |  |
| COc1nnc2c3cc(C4CCS(=O)(=O)CC4)c(nc13)OCCCCCCCN1CCC(CC1)C(F)(F)c1cccc(c1F)[C@@H](C)N2 [Compound 177, (R)-4-(3^2,2,2-trifluoro-6^8-methoxy-4-methyl-7-oxa-5-aza-6(5,2)-pyrido[2,3-d]pyridazina-1(4,1)-piperidina-3(1,3)-benzenacyclotetradecaphane-6^3-yl)tetrahydro-2H-thiopyran 1,1-dioxide] | < 0.1 µM | < 1 µM |  |  |
| C[C@H]1Nc2ncnc3c2cc(N2CCN(C4CCN(C)CC4)CC2)c(=O)n3CCCCCCCN2CCC(CC2)C(F)(F)c2cccc1c2F [Compound 178, (4R)-3^2,2,2-trifluoro-4-methyl-6^6-(4-(1-methylpiperidin-4-yl)piperazin-1-yl)-6^7,6^8-dihydro-5-aza-6(4,8)-pyrido[2,3-d]pyrimidina-1(4,1)-piperidina-3(1,3)-benzenacyclotridecaphan-6^7-one] | < 0.1 µM | < 1 µM |  |  |
| C[C@H]1Nc2ncnc3c2cc(N2CCN(C4COC4)CC2)c(=O)n3CCCCCCCN2CCC(CC2)C(F)(F)c2cccc1c2F [Compound 179, (4R)-3^2,2,2-trifluoro-4-methyl-6^6-(4-(oxetan-3-yl)piperazin-1-yl)-6^7,6^8-dihydro-5-aza-6(4,8)-pyrido[2,3-d]pyrimidina-1(4,1)-piperidina-3(1,3)-benzenacyclo-tridecaphan-6^7-one] | < 0.1 µM | < 1 µM |  |  |
| C[C@H]1Nc2ncnc3c2cc(N2CCN(S(C)(=O)=O)CC2)c(=O)n3CCCCCCCN2CCC(CC2)C(F)(F)c2cccc1c2F [Compound 180, (4R)-3^2,2,2-trifluoro-4-methyl-6^6-(4-(methylsulfonyl)piperazin-1-yl)-6^7,6^8-dihydro-5-aza-6(4,8)-pyrido[2,3-d]pyrimidina-1(4,1)-piperidina-3(1,3)-benzenacyclotride-caphan-6^7-one] | < 0.1 µM | < 1 µM |  |  |
| C[C@H]1Nc2ncnc3c2cc(N2CCS(=O)(=O)CC2)c(=O)n3CCCCCN2CCC(CC2)CCC(F)(F)c2cccc1c2 [Compound 181, (3R)-1^6-(1,1-dioxidothiomorpholino)-5,5-difluoro-3-methyl-1^7,1^8-dihydro-2-aza-1(4,8)-pyrido[2,3-d]pyrimidina-8(4,1)-piperidina-4(1,3)-benzenacyclotridecaphan-1^7-one] | < 0.1 µM | < 1 µM |  |  |
| C[C@H]1Nc2ncnc3c2cc(N2CCS(=O)(=O)CC2)c(=O)n3CCCOCCCCN2CCC(CC2)C(F)(F)c2cccc1c2 [Compound 186, (4R)-6^6-(1,1-dioxidothiomorpholino)-2,2-difluoro-4-methyl-6^7,6^8-dihydro-10-oxa-5-aza-6(4,8)-pyrido[2,3-d]pyrimidina-1(4,1)-piperidina-3(1,3)-benzenacyclotetradecaphan-6^7-one] | < 0.1 µM | < 1 µM |  |  |
| C[C@H]1Nc2ncnc3c2cc(C2(C#N)CCS(=O)(=O)CC2)c(=O)n3CCCOCCCN2CCC(CC2)CC(F)(F)c2cccc1c2 [Compound 189, 4-((3R)-5,5-difluoro-3-methyl-1^7-oxo-1^7,1^8-dihydro-11-oxa-2-aza-1(4,8)-pyrido[2,3-d]pyrimidina-7(4,1)-piperidina-4(1,3)-benzenacyclotetradecaphane-1^6-yl)tetrahydro-2H-thiopyran-4-carbonitrile 1,1-dioxide] | < 0.1 µM | < 1 µM |  |  |
| CC(C)N1CCN(c2cc3c4ncnc3n(c2=O)CCCOCCCCN2CCC(CC2)C(F)(F)c2cccc(c2)[C@@H](C)N4)CC1 [Compound 190, (4R)-2,2-difluoro-6^6-(4-isopropylpiperazin-1-yl)-4-methyl-6^7,6^8-dihydro-10-oxa-5-aza-6(4,8)-pyrido[2,3-d]pyrimidina-1(4,1)-piperidina-3(1,3)-benzenacyclotetradecaphan-6^7-one] | < 0.1 µM | < 1 µM |  |  |
| C[C@H]1Nc2ncnc3c2cc(C2CCS(=O)(=O)CC2)c(=O)n3CCCOCCCN2CCC(CC2)CC(F)(F)c2cccc1c2F [Compound 191, (3R)-1^6-(1,1-dioxidotetrahydro-2H-thiopyran-4-yl)-4^2,5,5-trifluoro-3-methyl-1^7,1^8-dihydro-11-oxa-2-aza-1(4,8)-pyrido[2,3-d]pyrimidina-7(4,1)-piperidina-4(1,3)-benzenacyclotetradecaphan-1^7-one] | < 0.1 µM | < 1 µM |  |  |
| C[C@H]1Nc2ncnc3c2cc(C2CCS(=O)(=O)CC2)c(=O)n3CCCOCCCCN2CCC(CC2)C(F)(F)c2cccc1c2F [Compound 203, (4R)-6^6-(1,1-dioxidotetrahydro-2H-thiopyran-4-yl)-3^2,2,2-trifluoro-4-methyl-6^7,6^8-dihydro-10-oxa-5-aza-6(4,8)-pyrido[2,3-d]pyrimidina-1(4,1)-piperidina-3(1,3)-benzenacyclotetradecaphan-6^7-one] | < 0.1 µM | < 1 µM |  |  |
